T/C data for 23 compounds are collected here from PubChem BioAssay AID330 (DTP/NCI, 2004).

SMILES strings stand for the structures. Several values for one entry are separate records, joined by “and”; a condition that tells them apart may be missing. Equal entries are not always repeated. Inconclusive results and toxic doses are left out.

The subject of this test is P388 leukemia ip, CD2F1 mice, survival T/C. In words: NCI In Vivo Anticancer Drug Screen. Data for tumor model P388 Leukemia (intraperitoneal) in CD2F1 (CDF1) mice. Particulars: endpoint: median survival time, higher = longer survival. In a few lines: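 Mice carrying the transplanted tumor received test compound or vehicle. Survival was recorded in each group, and the value is the treated-group measurement divided by that of the vehicle-treated control group.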

[1] abbreviates: dose: 6.25 mg/kg/injection, schedule: Q01DX009 (ip), vehicle: saline.
[2] abbreviates: dose: 12.5 mg/kg/injection, schedule: Q01DX009 (ip), vehicle: saline.
Setting [3] is: dose: 25.0 mg/kg/injection, schedule: Q01DX009 (ip), vehicle: saline.
[4] abbreviates: dose: 50.0 mg/kg/injection, schedule: Q01DX009 (ip), vehicle: saline.
[5] abbreviates: dose: 100.0 mg/kg/injection, schedule: Q01DX009 (ip), vehicle: saline.
Setting [6] is: dose: 200.0 mg/kg/injection, schedule: Q01DX009 (ip), vehicle: saline.
Where [7] appears, read: dose: 50.0 mg/kg/injection, schedule: Q01DX005 (ip), vehicle: saline with Tween-80.
Where [8] appears, read: dose: 100.0 mg/kg/injection, schedule: Q01DX005 (ip), vehicle: saline with Tween-80.
Setting [9] is: dose: 200.0 mg/kg/injection, schedule: Q01DX005 (ip), vehicle: saline with Tween-80.
The mark [10] stands for this setting: dose: 50.0 mg/kg/injection, schedule: Q01DX009 (ip), vehicle: saline with Tween-80.
The mark [11] stands for this setting: dose: 100.0 mg/kg/injection, schedule: Q01DX009 (ip), vehicle: saline with Tween-80.
The mark [12] stands for this setting: dose: 60.0 mg/kg/injection, schedule: Q01DX005 (ip), vehicle: saline with Tween-80.
Where [13] appears, read: dose: 120.0 mg/kg/injection, schedule: Q01DX005 (ip), vehicle: saline with Tween-80.
Setting [14] is: dose: 240.0 mg/kg/injection, schedule: Q01DX005 (ip), vehicle: saline with Tween-80.
Setting [15] is: dose: 25.0 mg/kg/injection, schedule: Q01DX009 (ip), vehicle: saline with Tween-80.

Take `OC1CCOC1` (centres undefined): the T/C under setting [1] is 95 % of control; the T/C under setting [2] is 97 % of control; the T/C under setting [3] is 100 % of control; the T/C under setting [4] was 101 % of control; the T/C under setting [5] is 101 % of control; the T/C under setting [6] was 98 % of control. In addition, the T/C is 94 % of control (dose: 400.0 mg/kg/injection, schedule: Q01DX009 (ip), vehicle: saline) and 96 % of control (dose: 800.0 mg/kg/injection, schedule: Q01DX009 (ip), vehicle: saline).

For `CCCC1N=C(N)N=C(N)N1c1ccc(OC)cc1` (centres undefined), the T/C was 100 % of control (dose: 12.5 mg/kg/injection, schedule: Q01DX005 (ip), vehicle: saline with Tween-80); 103 % of control (dose: 25.0 mg/kg/injection, schedule: Q01DX005 (ip), vehicle: saline with Tween-80); 101 % of control and 106 % of control under setting [7].

Regarding `COCCOCn1cccc1Cc1ccc(OC)cc1`, the T/C (dose: 100.0 mg/kg/injection, schedule: Q01DX001 (ip), vehicle: distilled water + Tween-80 + alcohol) was 100 % of control; the T/C (dose: 200.0 mg/kg/injection, schedule: Q01DX001 (ip), vehicle: distilled water + Tween-80 + alcohol) was 105 % of control; the T/C (dose: 400.0 mg/kg/injection, schedule: Q01DX001 (ip), vehicle: distilled water + Tween-80 + alcohol) is 96 % of control.

Turning to `Cc1ccc2snnc2c1`, the T/C was 98 % of control (dose: 1.56 mg/kg/injection, schedule: Q01DX009 (ip), vehicle: Klucel (hydroxypropylcellulose) (HPC)); 99 % of control (dose: 3.12 mg/kg/injection, schedule: Q01DX009 (ip), vehicle: Klucel (hydroxypropylcellulose) (HPC)); 98 % of control and 95 % of control (dose: 6.25 mg/kg/injection, schedule: Q01DX009 (ip), vehicle: Klucel (hydroxypropylcellulose) (HPC)); 100 % of control (dose: 12.5 mg/kg/injection, schedule: Q01DX001 (ip), vehicle: Klucel (hydroxypropylcellulose) (HPC)); 95 % of control (dose: 25.0 mg/kg/injection, schedule: Q01DX001 (ip), vehicle: Klucel (hydroxypropylcellulose) (HPC)); 99 % of control (dose: 50.0 mg/kg/injection, schedule: Q01DX001 (ip), vehicle: Klucel (hydroxypropylcellulose) (HPC)).

With `COc1ccc(CNSC(c2ccccc2)(c2ccccc2)c2ccccc2)cc1`, the T/C is 98 % of control under setting [7], 101 % of control under setting [8] and 97 % of control under setting [9].

For `N#CC(CN1CCOCC1)CN1CCOCC1`, the T/C reads like this: under setting [10], 95 % of control; under setting [11], 101 % of control; (dose: 200.0 mg/kg/injection, schedule: Q01DX009 (ip), vehicle: saline with Tween-80) 96 % of control.

With `O=S(=O)(O)O.[Cu+2].[NH2-].[NH2-].[NH2-].[NH2-]`, the T/C is 99 % of control (dose: 5.0 mg/kg/injection, schedule: Q04DX002 (ip), vehicle: saline); 86 % of control under setting [1]; 93 % of control under setting [2].

`C#CC(C)(C)Nc1c2ccccc2nc2ccccc12`: the T/C was 96 % of control under setting [7], 103 % of control under setting [8] and 102 % of control under setting [9].

On to `Cn1c(=O)c(C#N)c2n(C)c3ccccc3n2c1=O`, for which the T/C under setting [12] is 93 % of control, the T/C under setting [13] is 89 % of control and the T/C under setting [14] was 89 % of control.

In the case of `O=C(O)c1ccccc1Nc1cccc(C(F)(F)F)c1`, the T/C (dose: 12.5 mg/kg/injection, schedule: Q01DX009 (ip), vehicle: saline with Tween-80) is 103 % of control; the T/C under setting [15] was 98 % of control; the T/C under setting [10] is 97 % of control; the T/C under setting [11] is 107 % of control.

Consider `Cc1ccc2c(=O)n3cc(CCC#N)cc3c(=O)[nH]c2c1O`, for which the T/C is, setting by setting: (dose: 100.0 mg/kg/injection, schedule: Q01DX001 (ip), vehicle: Klucel (hydroxypropylcellulose) (HPC)) 99 % of control; (dose: 200.0 mg/kg/injection, schedule: Q01DX001 (ip), vehicle: Klucel (hydroxypropylcellulose) (HPC)) 89 % of control; (dose: 400.0 mg/kg/injection, schedule: Q01DX001 (ip), vehicle: Klucel (hydroxypropylcellulose) (HPC)) 92 % of control.

With `N#C/C(=C/c1ccc(Cl)cc1)C(N)=O`, the T/C is, setting by setting: (dose: 25.0 mg/kg/injection, schedule: Q01DX001 (ip), vehicle: saline with Tween-80) 102 % of control; (dose: 50.0 mg/kg/injection, schedule: Q01DX001 (ip), vehicle: saline with Tween-80) 104 % of control; (dose: 100.0 mg/kg/injection, schedule: Q01DX001 (ip), vehicle: saline with Tween-80) 97 % of control; (dose: 200.0 mg/kg/injection, schedule: Q01DX001 (ip), vehicle: saline with Tween-80) 97 % of control.

On to `CC(CNCCN)C[Si](C)(C)C` (centres undefined), for which the T/C under setting [1] is 95 % of control, the T/C under setting [2] was 87 % of control and the T/C under setting [3] is 95 % of control.

For `C#CCC(N)C(=O)O` (centres undefined), the T/C is 107 % of control (dose: 12.5 mg/kg/injection, schedule: Q01DX005 (ip), vehicle: saline); 111 % of control (dose: 25.0 mg/kg/injection, schedule: Q01DX005 (ip), vehicle: saline); 100 % of control and 106 % of control (dose: 50.0 mg/kg/injection, schedule: Q01DX005 (ip), vehicle: saline); 108 % of control (dose: 100.0 mg/kg/injection, schedule: Q01DX005 (ip), vehicle: saline).

Take `CC(N)C(=O)O` (centres undefined): the T/C reads like this: under setting [4], 115 % of control; under setting [5], 105 % of control; under setting [6], 106 % of control.

Regarding `COc1cc2c(cc1C1CCCCCc3c1n(C)c1ccccc31)C1CCCCC1N2C` (centres undefined), the T/C by setting is: (dose: 12.5 mg/kg/injection, schedule: Q01DX001 (ip), vehicle: distilled water + Tween-80) 108 % of control; (dose: 25.0 mg/kg/injection, schedule: Q01DX001 (ip), vehicle: distilled water + Tween-80) 116 % of control; (dose: 50.0 mg/kg/injection, schedule: Q01DX001 (ip), vehicle: distilled water + Tween-80) 101 % of control; (dose: 100.0 mg/kg/injection, schedule: Q01DX001 (ip), vehicle: distilled water + Tween-80) 111 % of control; (dose: 200.0 mg/kg/injection, schedule: Q01DX001 (ip), vehicle: distilled water + Tween-80) 111 % of control.

For the compound `Cc1cc(O)c(NCCCN(C)C)c2c(=O)c3ccccc3sc12`, the T/C reads like this: under setting [15], 97 % of control; under setting [10], 93 % of control; under setting [11], 110 % of control.

In the case of `Cc1cc2cc3cc(C)c(N)cc3nc2cc1N`, the T/C is 120 % of control and 219 % of control (dose: 6.25 mg/kg/injection, schedule: Q01DX009 (ip), vehicle: saline with Tween-80); 113 % of control under setting [2]; 110 % of control under setting [3]; 97 % of control under setting [10]; 114 % of control under setting [4].

Regarding `CC(C)NCCCNC(=S)C(=S)NCCCNC(C)C`, the T/C is, setting by setting: (dose: 50.0 mg/kg/injection, schedule: Q01DX005 (ip), vehicle: Klucel (hydroxypropylcellulose) (HPC)) 100 % of control; (dose: 100.0 mg/kg/injection, schedule: Q01DX005 (ip), vehicle: Klucel (hydroxypropylcellulose) (HPC)) 94 % of control.

On to `Cc1cccc(NC(=O)Oc2ccc(Cl)cc2C(=O)c2ccccc2)c1`, for which the T/C is, setting by setting: under setting [12], 97 % of control; under setting [13], 98 % of control; under setting [14], 105 % of control.

`Cc1ccc2c(c1)=N/C(=N\c1nc(O)c(O)[nH]1)N=2`: the T/C is 106 % of control (dose: 60.0 mg/kg/injection, schedule: Q01DX009 (ip), vehicle: saline with Tween-80); 106 % of control under setting [11]; 109 % of control (dose: 140.0 mg/kg/injection, schedule: Q01DX009 (ip), vehicle: saline with Tween-80); 111 % of control (dose: 210.0 mg/kg/injection, schedule: Q01DX009 (ip), vehicle: saline with Tween-80).

For the compound `C=C(C)[C@@H]1CC=C(C)[C@H](O)C1`, the T/C was 111 % of control under setting [4], 102 % of control under setting [5] and 100 % of control under setting [6].

As to `C=C(C)C(=O)OC1C2C(=C)C(=O)OC2CC(C)C2OC2C(=O)C(C)(O)C1OC(=O)C(=C)C` (centres undefined), the T/C by setting is: (dose: 12.5 mg/kg/injection, schedule: Q04DX002 (ip), vehicle: Klucel (hydroxypropylcellulose) (HPC)) 110 % of control; (dose: 25.0 mg/kg/injection, schedule: Q04DX002 (ip), vehicle: Klucel (hydroxypropylcellulose) (HPC)) 110 % of control; (dose: 50.0 mg/kg/injection, schedule: Q04DX002 (ip), vehicle: Klucel (hydroxypropylcellulose) (HPC)) 107 % of control.
